# Assay results as given in ChEMBL document CHEMBL1126419 (Bioorg Med Chem Lett, 1992).
# Molecular target: cAMP-dependent protein kinase (PKA) (Homo sapiens, UniProt P22694+P17612+P22612)
# Assay: Inhibition of protein kinase A
# Format: protein assay
row,SMILES,IC50 [µM]
1,O=C1NC(O)c2c1c1c3ccccc3[nH]c1c1[nH]c3ccccc3c21 (centres undefined),34
2,O=C1NC(=O)c2c1c1c3cccc(Cl)c3[nH]c1c1[nH]c3c(Cl)cccc3c21,> 100
3,O=C1NC(=O)c2c1c1c3ccccc3[nH]c1c1[nH]c3ccccc3c21 [STAUROSPORINE AGLYCON],60
4,O=C1NCc2c1c1c3ccccc3[nH]c1c1[nH]c3ccccc3c21 [STAUROSPORINONE],25.7
